Biological target: human ACC2 (Homo sapiens (Human), UniProt O00763)
Assay: ACC2 assay (spectrophotometric 384 well assay, NADH-linked kinetic method)
Type: biochemical
Details: hACC2 construct lacking 128 N-terminal amino acids; coupled lactate dehydrogenase/pyruvate kinase reaction, 340 nm, 25° C.
Procedure: Spectrophotometric 384 Well Assay
Malonyl CoA formation by acetyl CoA carboxylases is stoichometrically linked to the consumption of ATP. ACC2 activity is measured in a NADH-linked kinetic method measuring ADP generated during the ACC reaction using a coupled lactate dehydrogenase/pyruvate kinase reaction.
The protein is then expressed in insect cells using a baculoviral expression system. Protein purification is performed by anion exchange.
All compounds are dissolved in dimethyl sulfoxide (DMSO) to a concentration of 10 mM.
The enzymatic reaction is then started by addition of a mixture of NADH, acetyl Coenzyme A (both 200 μM f.c.) and ATP (500 uM f.c.). The decrease of the optical density (slope S) is then determined at 25° C. at a wavelength of 340 nm over 15 minutes in a spectrophotometric reader.
Each assay microtiter plate contains wells with vehicle instead of compound as controls for the non-inhibited enzyme (100% CTL; ‘HIGH’) and wells without acetyl-CoA as controls for non-specific NADH degradation (0% CTL; ‘LOW’).

Chain of human ACC2 (O00763 129-2458): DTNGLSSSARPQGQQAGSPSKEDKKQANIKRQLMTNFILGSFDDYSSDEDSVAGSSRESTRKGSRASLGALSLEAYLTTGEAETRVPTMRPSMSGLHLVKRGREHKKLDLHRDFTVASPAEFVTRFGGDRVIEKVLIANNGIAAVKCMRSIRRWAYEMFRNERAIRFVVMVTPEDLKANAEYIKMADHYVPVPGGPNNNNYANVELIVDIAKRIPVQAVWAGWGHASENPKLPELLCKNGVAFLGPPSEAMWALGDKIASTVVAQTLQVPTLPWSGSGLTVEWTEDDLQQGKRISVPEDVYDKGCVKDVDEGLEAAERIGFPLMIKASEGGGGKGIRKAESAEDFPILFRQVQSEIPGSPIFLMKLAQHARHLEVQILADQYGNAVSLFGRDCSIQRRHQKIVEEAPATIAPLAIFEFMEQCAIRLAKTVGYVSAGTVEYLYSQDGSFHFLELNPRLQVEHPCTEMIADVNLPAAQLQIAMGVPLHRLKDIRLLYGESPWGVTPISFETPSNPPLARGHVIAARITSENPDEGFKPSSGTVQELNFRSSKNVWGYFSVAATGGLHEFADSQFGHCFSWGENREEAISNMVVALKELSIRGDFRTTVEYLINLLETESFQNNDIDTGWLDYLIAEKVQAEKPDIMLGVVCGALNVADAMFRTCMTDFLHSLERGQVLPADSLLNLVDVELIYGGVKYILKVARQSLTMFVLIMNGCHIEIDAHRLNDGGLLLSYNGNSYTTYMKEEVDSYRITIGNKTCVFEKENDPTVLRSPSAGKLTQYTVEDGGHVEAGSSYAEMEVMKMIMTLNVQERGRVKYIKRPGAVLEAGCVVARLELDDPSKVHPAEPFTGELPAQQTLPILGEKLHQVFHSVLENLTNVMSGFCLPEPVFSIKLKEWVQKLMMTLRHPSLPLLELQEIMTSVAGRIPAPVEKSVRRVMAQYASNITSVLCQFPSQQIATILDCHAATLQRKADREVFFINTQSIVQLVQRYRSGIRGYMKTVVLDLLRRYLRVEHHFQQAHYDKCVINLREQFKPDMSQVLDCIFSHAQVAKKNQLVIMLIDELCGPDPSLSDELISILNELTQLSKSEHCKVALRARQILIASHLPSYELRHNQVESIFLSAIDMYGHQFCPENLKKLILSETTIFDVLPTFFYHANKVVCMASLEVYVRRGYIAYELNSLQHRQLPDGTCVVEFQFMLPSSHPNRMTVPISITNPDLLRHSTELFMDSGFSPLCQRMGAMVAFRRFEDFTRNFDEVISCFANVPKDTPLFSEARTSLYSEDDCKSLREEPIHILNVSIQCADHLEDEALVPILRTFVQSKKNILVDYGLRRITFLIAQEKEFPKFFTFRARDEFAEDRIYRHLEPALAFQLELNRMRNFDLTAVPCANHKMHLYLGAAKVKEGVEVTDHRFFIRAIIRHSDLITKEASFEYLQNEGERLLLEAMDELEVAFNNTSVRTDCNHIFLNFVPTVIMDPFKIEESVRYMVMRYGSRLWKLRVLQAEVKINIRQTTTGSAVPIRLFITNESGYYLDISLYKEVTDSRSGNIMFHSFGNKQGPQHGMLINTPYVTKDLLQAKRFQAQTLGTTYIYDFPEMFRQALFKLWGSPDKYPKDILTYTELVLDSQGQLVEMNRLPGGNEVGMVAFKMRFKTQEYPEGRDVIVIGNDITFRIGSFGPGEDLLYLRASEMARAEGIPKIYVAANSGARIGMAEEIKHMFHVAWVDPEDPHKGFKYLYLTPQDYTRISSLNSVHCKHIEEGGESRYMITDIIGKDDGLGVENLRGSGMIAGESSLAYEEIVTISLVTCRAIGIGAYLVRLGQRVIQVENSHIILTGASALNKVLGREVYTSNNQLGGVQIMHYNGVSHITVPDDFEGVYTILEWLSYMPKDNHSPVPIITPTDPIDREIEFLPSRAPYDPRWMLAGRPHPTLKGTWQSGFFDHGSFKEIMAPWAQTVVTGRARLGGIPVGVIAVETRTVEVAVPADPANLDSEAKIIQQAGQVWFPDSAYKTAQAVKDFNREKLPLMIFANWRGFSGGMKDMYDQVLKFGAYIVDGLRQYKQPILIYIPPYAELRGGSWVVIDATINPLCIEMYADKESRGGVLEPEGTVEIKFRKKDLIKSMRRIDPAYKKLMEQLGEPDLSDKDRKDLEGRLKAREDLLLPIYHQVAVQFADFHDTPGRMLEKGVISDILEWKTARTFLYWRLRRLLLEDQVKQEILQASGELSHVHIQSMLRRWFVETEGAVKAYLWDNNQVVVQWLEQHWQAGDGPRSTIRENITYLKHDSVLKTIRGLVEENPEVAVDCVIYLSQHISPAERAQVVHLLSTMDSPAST

Row | Structure (SMILES) | IC50 [nM]
1 | C[C@H](NC(=O)OCC1CC1)c1ccc(O[C@@H]2CCN(c3ncnc(OCC4CC4)c3F)C2)cc1 [Example 7.36] | 2900
2 | CC(=O)N[C@@H](C)c1ccc(O[C@@H]2CCN(c3ncnc(OC4CCOCC4)c3F)C2)cc1 [Example 7.37] | 250
3 | CC(=O)N[C@@H](C)c1ccc(O[C@@H]2CCN(c3ncnc(O[C@@H]4CCOC4)c3F)C2)cc1 [Example 7.38] | 196
4 | CC(=O)N[C@@H](C)c1ccc(O[C@@H]2CCN(c3ncnc(OCC(C)(F)F)c3Cl)C2)cc1 [Example 7.39] | 60
5 | CC(=O)N[C@@H](C)c1ccc(O[C@@H]2CCN(c3ncnc(OCC4CC4(F)F)c3Cl)C2)cc1 (stereo partly drawn) [Example 7.40] | 42
6 | CC(=O)N[C@@H](C)c1ccc(O[C@@H]2CCN(c3ncnc(OC4CCC4)c3Cl)C2)cc1 [Example 7.41] | 39
7 | CC(=O)N[C@@H](C)c1ccc(O[C@@H]2CCN(c3ncnc(OCC(C)(C)O)c3Cl)C2)cc1 [Example 7.42] | 81
8 | CCOc1ncnc(N2CC[C@@H](Oc3ccc([C@H](C)NC(C)=O)cc3)C2)c1OC [Example 7.44] | 277
9 | CC(=O)N[C@@H](C)c1ccc(O[C@@H]2CCN(c3ncnc(OC[C@H]4CC4(F)F)c3F)C2)cc1 [Example 7.45] | 99
10 | COC(C)(C)COc1ncnc(N2CC[C@@H](Oc3ccc([C@H](C)NC(C)=O)cc3)C2)c1F [Example 7.46] | 595
11 | CC(=O)N[C@@H](C)c1ccc(O[C@@H]2CCN(c3ncnc(OC4CCCC4)c3F)C2)cc1 [Example 7.47] | 58
12 | CC(=O)N[C@@H](C)c1ccc(O[C@@H]2CCN(c3ncnc(OC[C@@H]4CC4(F)F)c3F)C2)cc1 [Example 7.48] | 87
13 | COc1c(OCC(C)(F)F)ncnc1N1CC[C@@H](Oc2ccc([C@H](C)NC(C)=O)cc2)C1 [Example 7.49] | 117
14 | COc1c(OC(C)C)ncnc1N1CC[C@@H](Oc2ccc([C@H](C)NC(C)=O)cc2)C1 [Example 7.50] | 97
15 | CCCOc1ncnc(N2CC[C@@H](Oc3ccc([C@H](C)NC(C)=O)cc3)C2)c1OC [Example 7.51] | 392
16 | CC(=O)N[C@@H](C)c1ccc(O[C@@H]2CCN(c3ncnc(OC(C)C)c3Cl)C2)cc1 [Example 7.52] | 105
17 | CC(=O)N[C@@H](C)c1ccc(O[C@@H]2CCN(c3ncnc(OC4CCCC4)c3Cl)C2)cc1 [Example 7.53] | 32
18 | COc1c(OCC(F)F)ncnc1N1CC[C@@H](Oc2ccc([C@H](C)NC(C)=O)cc2)C1 [Example 7.54] | 162
19 | COc1c(OC2CCCC2)ncnc1N1CC[C@@H](Oc2ccc([C@H](C)NC(C)=O)cc2)C1 [Example 7.55] | 69
20 | COc1c(OCC2CC2(F)F)ncnc1N1CC[C@@H](Oc2ccc([C@H](C)NC(C)=O)cc2)C1 (stereo partly drawn) [Example 7.56] | 75
21 | CC(=O)N[C@@H](C)c1ccc(O[C@@H]2CCN(c3ncnc(OCC(F)F)c3Cl)C2)cc1 [Example 7.57] | 109
22 | COc1c(OCC(C)(C)O)ncnc1N1CC[C@@H](Oc2ccc([C@H](C)NC(C)=O)cc2)C1 [Example 7.58] | 355
23 | COc1c(OCC2CC2)ncnc1N1CC[C@@H](Oc2ccc([C@H](C)NC(C)=O)cc2)C1 [Example 7.59] | 39
24 | COC(C)(C)COc1ncnc(N2CC[C@@H](Oc3ccc([C@H](C)NC(C)=O)cc3)C2)c1Cl [Example 7.60] | 145
25 | COc1c(OCC(C)(C)OC)ncnc1N1CC[C@@H](Oc2ccc([C@H](C)NC(C)=O)cc2)C1 [Example 7.61] | 233
26 | CCC(=O)Nc1nc(C)c(C(=O)N[C@@H](C)c2ccc(O[C@@H]3CCN(c4ncnc(OCC5CC5)c4OC)C3)cc2)s1 [Example 7.63] | 112
27 | CC(=O)N[C@@H](C)c1ccc(O[C@@H]2CCN(c3ncnc(OC4CCOCC4)c3Cl)C2)cc1 [Example 7.64] | 128
28 | CCC(=O)Nc1nc(C)c(C(=O)N[C@@H](C)c2ccc(O[C@@H]3CCN(c4ncnc(OCC(C)(C)O)c4F)C3)cc2)s1 [Example 7.65] | 650
29 | CCC(=O)Nc1nc(C)c(C(=O)N[C@@H](C)c2ccc(O[C@@H]3CCN(c4ncnc(OCC(C)(C)O)c4Cl)C3)cc2)s1 [Example 7.66] | 723
30 | CC(=O)N[C@@H](C)c1ccc(O[C@@H]2CCN(c3nc(OCC4CC4(F)F)ncc3F)C2)cc1 (stereo partly drawn) [Example 7.67] | 789

The next lines start with the values.

Row | IC50 [nM] | Structure (SMILES)
31 | 55 | CC(=O)N[C@@H](C)c1ccc(O[C@@H]2CCN(c3nc(N(C)C)ncc3F)C2)cc1 [Example 8.1, N—((S)-1-(4-((R)-1-(2-(dimethylamino)-5-fluoropyrimidin-4-yl)pyrrolidin-3-yloxy)phenyl)ethyl)acetamide]
32 | 424 | CC(=O)N[C@@H](C)c1ccc(O[C@@H]2CCN(c3cc(N(C)CC4CC4)ncn3)C2)cc1 [Example 8.2]
33 | 125 | CC(=O)N[C@@H](C)c1ccc(O[C@@H]2CCN(c3ccnc(N(C)CC4CC4)n3)C2)cc1 [Example 8.3]
34 | 1030 | CC(=O)N[C@@H](C)c1ccc(O[C@@H]2CCN(c3ccnc(NC4CCCC4)n3)C2)cc1 [Example 8.4]
35 | 403 | CC(=O)N[C@@H](C)c1ccc(O[C@@H]2CCN(c3ccnc(N4CCCC4)n3)C2)cc1 [Example 8.5]
36 | 102 | CCCN(C)c1nccc(N2CC[C@@H](Oc3ccc([C@H](C)NC(C)=O)cc3)C2)n1 [Example 8.6]
37 | 865 | CCCN(C)c1cc(N2CC[C@@H](Oc3ccc([C@H](C)NC(C)=O)cc3)C2)ncn1 [Example 8.7]
38 | 45 | CC(=O)N[C@@H](C)c1ccc(O[C@@H]2CCN(c3nc(N4CCCCC4)ncc3F)C2)cc1 [Example 8.8]
39 | 33 | CC(=O)N[C@@H](C)c1ccc(O[C@@H]2CCN(c3nc(N(C)CC4CC4)ncc3F)C2)cc1 [Example 8.9]
40 | 190 | CC(=O)N[C@@H](C)c1ccc(O[C@@H]2CCN(c3nc(NC4CCCC4)ncc3F)C2)cc1 [Example 8.10]
41 | 58 | CC(=O)N[C@@H](C)c1ccc(O[C@@H]2CCN(c3nc(N(C)C4CCCC4)ncc3F)C2)cc1 [Example 8.11]
42 | 67 | CC(=O)N[C@@H](C)c1ccc(O[C@@H]2CCN(c3nc(N4CCCC4)ncc3F)C2)cc1 [Example 8.12]
43 | 710 | CC(=O)N[C@@H](C)c1ccc(O[C@@H]2CCN(c3ccnc(N(C)C)n3)C2)cc1 [Example 8.14]
44 | 354 | CC(=O)N[C@@H](C)c1ccc(O[C@@H]2CCN(c3ccnc(N4CCCC4C)n3)C2)cc1 (stereo partly drawn) [Example 8.16]
45 | 167 | CC(=O)N[C@@H](C)c1ccc(O[C@@H]2CCN(c3ccnc(N4CCC(C)C4)n3)C2)cc1 (stereo partly drawn) [Example 8.17]
46 | 160 | CC(=O)N[C@@H](C)c1ccc(O[C@@H]2CCN(c3ccnc(N4CCCCC4)n3)C2)cc1 [Example 8.18]
47 | 475 | CC(=O)N[C@@H](C)c1ccc(O[C@@H]2CCN(c3ccnc(N(C)C4CC4)n3)C2)cc1 [Example 8.19]
48 | 170 | CC(=O)N[C@@H](C)c1ccc(O[C@@H]2CCN(c3ccnc(N(C)C4CCCC4)n3)C2)cc1 [Example 8.20]

Row | IC50 [nM] | Structure (SMILES)
49 | 190 | CCN(C)c1nccc(N2CC[C@@H](Oc3ccc([C@H](C)NC(C)=O)cc3)C2)n1 [Example 8.21]
50 | 986 | CC(=O)N[C@@H](C)c1ccc(O[C@@H]2CCN(c3ccnc(N(C)CCc4ccccc4)n3)C2)cc1 [Example 8.22]
51 | 185 | CC(=O)N[C@@H](C)c1ccc(O[C@@H]2CCN(c3ccnc(N(C)Cc4ccccc4)n3)C2)cc1 [Example 8.23]
52 | 174 | CCN(CC)c1nccc(N2CC[C@@H](Oc3ccc([C@H](C)NC(C)=O)cc3)C2)n1 [Example 8.24]
53 | 294 | CC(=O)N[C@@H](C)c1ccc(O[C@@H]2CCN(c3ccnc(N(C)C(C)C)n3)C2)cc1 [Example 8.25]
54 | 69 | CCN(CC)c1ncc(F)c(N2CC[C@@H](Oc3ccc([C@H](C)NC(C)=O)cc3)C2)n1 [Example 8.26]
55 | 65 | CC(=O)N[C@@H](C)c1ccc(O[C@@H]2CCN(c3nc(N(C)CC(F)F)ncc3F)C2)cc1 [Example 8.27]
56 | 809 | CC(=O)N[C@@H](C)c1ccc(O[C@@H]2CCN(c3nc(N(C)CC(C)(C)O)ncc3F)C2)cc1 [Example 8.28]
57 | 150 | CC(=O)N[C@@H](C)c1ccc(O[C@@H]2CCN(c3nc(N(C)CC4CCOC4)ncc3F)C2)cc1 (stereo partly drawn) [Example 8.29]
58 | 184 | CC(=O)N[C@@H](C)c1ccc(O[C@@H]2CCN(c3nc(N(C)CC(F)(F)F)ncc3F)C2)cc1 [Example 8.30]
59 | 95 | CCN(C)c1ncc(F)c(N2CC[C@@H](Oc3ccc([C@H](C)NC(C)=O)cc3)C2)n1 [Example 8.31]
60 | 1070 | CC(=O)N[C@@H](C)c1ccc(O[C@@H]2CCN(c3nc(N(C)CCC(C)(C)O)ncc3F)C2)cc1 [Example 8.32]
61 | 1060 | CC(=O)N[C@@H](C)c1ccc(O[C@@H]2CCN(c3nc(N(C)C4CCCC4)ncc3C#N)C2)cc1 [Example 8.33]
62 | 1080 | CCCN(C)c1ncc(C#N)c(N2CC[C@@H](Oc3ccc([C@H](C)NC(C)=O)cc3)C2)n1 [Example 8.34]
63 | 824 | CCN(CC)c1ncc(C#N)c(N2CC[C@@H](Oc3ccc([C@H](C)NC(C)=O)cc3)C2)n1 [Example 8.35]
64 | 539 | CC(=O)N[C@@H](C)c1ccc(O[C@@H]2CCN(c3nc(NC4(C)CCCC4)ncc3F)C2)cc1 [Example 8.36]
65 | 349 | CC(=O)N[C@@H](C)c1ccc(O[C@@H]2CCN(c3ccnc(N(C)CCC#N)n3)C2)cc1 [Example 8.37]
66 | 1220 | COc1ccc(N(C)c2nccc(N3CC[C@@H](Oc4ccc([C@H](C)NC(C)=O)cc4)C3)n2)cc1 [Example 8.38]
